# Literature values in US5275819A, “Drug loaded pollen grains with an outer coating for pulsed delivery” (Amer Particle Technologies Inc., priority 1991, dated 1994).
# Details: compared with GNRH
compound,measurement,value
CC(C)C[C@H](NC(=O)[C@@H](Cc1ccc2ccccc2c1)NC(=O)[C@H](Cc1ccc(O)cc1)NC(=O)[C@H](CO)NC(=O)[C@H](Cc1c[nH]c2ccccc12)NC(=O)[C@H](Cc1c[nH]cn1)NC(=O)[C@@H]1CCC(=O)N1)C(=O)N[C@@H](CCCNC(=N)N)C(=O)N1CCC[C@H]1C(=O)NCC(N)=O [Nafarelin],activity relative to GNRH,200 times
